This is an account of results in patent US7294710B2 (Japan Science and Technology Agency, priority 1999, dated 2007).

For series [1], the system named is endogenous choline uptake of control oocytes. As to the kind of experiment: Choline uptake of control Xenopus oocytes injected with water. The class given is cell-based. As to conditions: 10 μM HC3, oocytes injected with water. As to the method: (§1) In the presence of cap analog, cRNA was synthesized in vitro with SP6 or T7 RNA polymerase. 20 to 30 ng capped RNA was microinjected into oocytes (stage V to VI) of Xenopus. The uptake was measured in basically same manner as described previously (Nature 360, 467-471, 1992). […] The oocytes completing uptake were solubilized with 10% SDS, and the amount of [^3H] was measured by a liquid scintillation counter.

Series [2] concerns the target T1, rat CHT1 (high-affinity choline transporter) (Rattus norvegicus, UniProt Q9JMD7).
T1 construct: expressed in transfected cells; host or cells: Xenopus oocytes microinjected with CHT1 cRNA (clone in pSPUTK vector)
T1 sequence (Q9JMD7 1-580): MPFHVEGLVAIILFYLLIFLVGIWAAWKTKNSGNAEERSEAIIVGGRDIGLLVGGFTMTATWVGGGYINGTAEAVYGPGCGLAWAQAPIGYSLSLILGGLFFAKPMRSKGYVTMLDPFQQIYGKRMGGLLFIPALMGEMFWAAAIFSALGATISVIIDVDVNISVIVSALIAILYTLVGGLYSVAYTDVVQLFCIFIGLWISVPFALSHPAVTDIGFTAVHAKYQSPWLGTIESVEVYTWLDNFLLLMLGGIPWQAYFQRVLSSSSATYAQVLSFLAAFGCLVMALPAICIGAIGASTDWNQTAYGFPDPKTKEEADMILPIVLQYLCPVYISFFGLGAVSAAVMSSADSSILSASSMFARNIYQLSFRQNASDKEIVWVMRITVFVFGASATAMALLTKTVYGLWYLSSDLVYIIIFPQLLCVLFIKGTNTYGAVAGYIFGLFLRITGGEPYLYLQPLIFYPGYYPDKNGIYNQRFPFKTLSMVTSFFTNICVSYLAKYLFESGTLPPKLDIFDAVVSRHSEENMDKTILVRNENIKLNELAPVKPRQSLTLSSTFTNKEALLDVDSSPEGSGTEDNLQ
As to the kind of experiment: [3H] choline uptake of Xenopus oocytes injected with CHT1 cRNA. The class given is cell-based. Here is the method:
as §1

In series [3] the test system is high-affinity uptake of choline in brain synaptosomes. The note with it: cited from earlier work.
Series [4] concerns low-affinity uptake of choline, distributed in every cells. As to conditions: read-out: Ki of HC3 for low-affinity uptake of choline, higher HC3 concentration; cited from earlier work.
The target of series [5] is T2, nematode high-affinity choline transporter cho-1 (C48D1.3) (Caenorhabditis elegans, UniProt O02228).
T2 construct: injecting each cRNA prepared from candidate full-length cDNAs; expressed in transfected cells; host or cells: Xenopus oocytes (stage V to VI) microinjected with capped cRNA transcribed from modified pSPUTK vector
T2 sequence (O02228 1-576): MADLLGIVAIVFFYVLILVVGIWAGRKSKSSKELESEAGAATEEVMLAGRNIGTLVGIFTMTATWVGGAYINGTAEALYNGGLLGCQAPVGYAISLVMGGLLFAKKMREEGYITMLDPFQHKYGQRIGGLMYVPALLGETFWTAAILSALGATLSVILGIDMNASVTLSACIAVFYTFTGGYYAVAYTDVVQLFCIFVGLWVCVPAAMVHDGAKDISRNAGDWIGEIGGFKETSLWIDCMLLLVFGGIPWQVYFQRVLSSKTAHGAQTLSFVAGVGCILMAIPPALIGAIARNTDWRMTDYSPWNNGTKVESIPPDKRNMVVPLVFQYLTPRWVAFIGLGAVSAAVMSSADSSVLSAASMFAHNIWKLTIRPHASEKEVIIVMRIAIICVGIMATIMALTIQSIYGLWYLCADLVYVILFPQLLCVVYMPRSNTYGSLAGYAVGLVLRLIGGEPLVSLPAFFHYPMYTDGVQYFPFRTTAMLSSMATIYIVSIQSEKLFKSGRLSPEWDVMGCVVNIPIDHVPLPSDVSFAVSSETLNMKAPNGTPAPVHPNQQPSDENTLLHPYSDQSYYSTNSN
As to the kind of experiment: [3H] choline uptake of Xenopus oocytes injected with nematode cho-1 (C48D1.3) cRNA. Format: cell-based, C. elegans. As to the method:
In the presence of cap analog, cRNA was synthesized in vitro with SP6 or T7 RNA polymerase. 20 to 30 ng capped RNA was microinjected into oocytes (stage V to VI) of Xenopus. […] The oocytes completing uptake were solubilized with 10% SDS, and the amount of [^3H] was measured by a liquid scintillation counter.

Substrate in series [6]: C[N+](C)(C)CCO
As to the kind of experiment: cells, lysate or membranes. As to conditions: other: Michaelis-Menten fit, water-injected uptake subtracted, n=3; pH 7.4.

`C[N+]1(C)CCOC(O)(c2ccc(-c3ccc(C4(O)C[N+](C)(C)CCO4)cc3)cc2)C1` (stereo not shown) [HC3, hemicholinium-3]: the “inhibition of choline uptake in control” value in series [1] is given as “only slight inhibition”. Besides, the Ki in series [2] was 2 to 3 nM; in series [3] (read-out: Ki of HC3 for high-affinity uptake of choline, brain synaptosomes of mammals), 10 to 100 nM; in series [4], 50000 nM; in series [5] it was 50 nM. The “inhibition of choline uptake of CHT1” value in series [2] (0.1 μM HC3) is reported as “completely inhibited”. The “inhibition of Na+-dependent choline uptake of CHT1” value in series [2] (CHT1 expressed in Xenopus oocytes, concentration not given) was “completely inhibited”. The “inhibition of high-affinity uptake of choline” value in series [3] (1 μM HC3, brain synaptosomes of mammals) is “completely inhibited”. Also, in series [5] (1 μM HC3, Xenopus oocytes), the “inhibition of cho-1 promoted choline uptake” value is recorded as “inhibited”.

B1: rat CHT1 (high-affinity choline transporter) (Rattus norvegicus) (protein)
chain: MPFHVEGLVAIILFYLLIFLVGIWAAWKTKNSGNAEERSEAIIVGGRDIGLLVGGFTMTATWVGGGYINGTAEAVYGPGCGLAWAQAPIGYSLSLILGGLFFAKPMRSKGYVTMLDPFQQIYGKRMGGLLFIPALMGEMFWAAAIFSALGATISVIIDVDVNISVIVSALIAILYTLVGGLYSVAYTDVVQLFCIFIGLWISVPFALSHPAVTDIGFTAVHAKYQSPWLGTIESVEVYTWLDNFLLLMLGGIPWQAYFQRVLSSSSATYAQVLSFLAAFGCLVMALPAICIGAIGASTDWNQTAYGFPDPKTKEEADMILPIVLQYLCPVYISFFGLGAVSAAVMSSADSSILSASSMFARNIYQLSFRQNASDKEIVWVMRITVFVFGASATAMALLTKTVYGLWYLSSDLVYIIIFPQLLCVLFIKGTNTYGAVAGYIFGLFLRITGGEPYLYLQPLIFYPGYYPDKNGIYNQRFPFKTLSMVTSFFTNICVSYLAKYLFESGTLPPKLDIFDAVVSRHSEENMDKTILVRNENIKLNELAPVKPRQSLTLSSTFTNKEALLDVDSSPEGSGTEDNLQ
The Km is the concentration of substrate that gives half-maximal velocity. As for B1, the Michaelis constant (Km) in series [6] is 2.2 ± 0.2 µM.
